{
  "source": "patent EP1433789A1",
  "about": "“Pyrrolopyrazines and their use as selective apoptosis inducers” (Aponetics AG, priority 2002, dated 2004)",
  "key": {"A20": {"test_system": "A20", "experiment": "AnnexinV/7-AAD staining", "assay_type": "cell-based, mouse", "details": "A20, 10 µM, 24 h treatment", "procedure": "(§1) Adherent cells (1 - 2*10^5) are 24 h prior to compound treatment seeded into 24 well tissue culture plates. Suspension cells are pipetted into P-tubes immediately before treatment. Test compounds are added leading to a final concentrations of 10 µM. After 24 h treatment cells are harvested (in case of adherent cells by trypsinization) and transferred to FACS tubes (BD Biosciences). After centrifugation and removal of the supernatant, 100 µl complete medium containing AnnexinV-GST (10 µg) is added, mixed and incubated at 4°C for 30 minutes. Subsequently, the cells are washed once with medium and incubated with 100 µl anti-GST Alexa 488 (Molecular Probes A-11131) in medium diluted 1:500 for 30 minutes at 4°C. Then, cells are washed once and stained with 1 µg/ml 7-aminoactinomycin D (7-AAD) (Molecular Probes A-1310) in 250 µl medium and analyzed on the FACSCalibur™. AnnexinV is measured in FL1 whereas 7-AAD is measured in FL3. In Table 5 the percentage of positively stained cells after treatment with the respective compounds are indicated. The following scores are used: Score 0 relates to less than 10%, score 1 relates to more than 10% but less than 50% and score 2 relates to more than 50% positivity."}, "Jurkat [1]": {"test_system": "Jurkat", "experiment": "Hoechst 33342 nuclear staining (Table 3)", "assay_type": "cell-based, human", "design": "key: 0 relating to no activity; 1 relating to weak activity comprising less than 50% of the cells; score 2 relating to strong activity comprising more than 50% of the cells", "procedure": "(§2) This assay is performed in 96 well tissue culture plates. Appropriate number of cells (adherent cells: 3 - 5*10^3, suspension cells: 8 - 10*10^3) are being seeded out in 80 µl complete medium. Adherent cells are incubated for 24 h for proper spreading out before addition of test compounds while suspension cells are immediately treated with test compounds after seeding out. The test compounds are added in 20 µl complete medium containing max 5% DMSO. The final compound concentrations in the assays are 10 µM, 3 µM,1 µM and 0.3 µM, respectively. After 24 h or 48 h incubation at culture conditions, 10 µl medium containing Hoechst 33342 dye (Sigma B-2261) at 2-5 µg/ml are added to each well. The assay plates are then further incubated for 30 minutes and subsequently analyzed with a standard inverted fluorescence microscope. The readout allows the determination of the fraction of apoptotic nuclei as well as other morphological criteria specific for apoptosis as a function of the treatment. The following scores are used: 0 relating to no activity, 1 relating to weak activity comprising less than 50% of the cells and score 2 relating to strong activity comprising more than 50% of the cells."}, "KB": {"test_system": "KB", "experiment": "Hoechst 33342 nuclear staining (Table 3)", "assay_type": "cell-based, human", "design": "key: 0 relating to no activity; 1 relating to weak activity comprising less than 50% of the cells; score 2 relating to strong activity comprising more than 50% of the cells", "procedure": "as §2"}, "Ramos [2]": {"test_system": "Ramos", "experiment": "Hoechst 33342 nuclear staining (Table 3)", "assay_type": "cell-based, human", "design": "key: 0 relating to no activity; 1 relating to weak activity comprising less than 50% of the cells; score 2 relating to strong activity comprising more than 50% of the cells", "procedure": "as §2"}, "HeLa [3]": {"test_system": "HeLa", "experiment": "Hoechst 33342 nuclear staining (Table 3)", "assay_type": "cell-based, human", "design": "key: 0 relating to no activity; 1 relating to weak activity comprising less than 50% of the cells; score 2 relating to strong activity comprising more than 50% of the cells", "procedure": "as §2"}, "K562 [4]": {"test_system": "K562", "experiment": "Hoechst 33342 nuclear staining (Table 3)", "assay_type": "cell-based, human", "design": "key: 0 relating to no activity; 1 relating to weak activity comprising less than 50% of the cells; score 2 relating to strong activity comprising more than 50% of the cells", "procedure": "as §2"}, "Jurkat [5]": {"test_system": "Jurkat", "experiment": "MTS proliferation assay", "assay_type": "cell-based", "details": "Homo sapiens, 72 h incubation", "procedure": "(§3) The assay is performed in 96 well tissue culture plates. The cells (range : 1.5*10^3-10^4) are seeded out in 80 µl complete medium 24 h prior to compound treatment. The test compounds are added in 20 µl complete medium containing max 5% DMSO. The final compound concentrations in the assays are 10 µM, 3 µM,1 µM and 0.3 µM, respectively. The assay plates are incubated for 72 h at culture conditions. The MTS reagent is prepared according to the manufacturer's protocol (Promega G1111 ). 20 µl MTS reagent are added to each well, the assay plates are quickly spun and incubated for another 3 h at culture conditions. Subsequently, the plates are shortly shaked and absorption measured with a microplate-reader at 492 nm."}, "HeLa [6]": {"test_system": "HeLa", "experiment": "MTS proliferation assay", "assay_type": "cell-based", "details": "Homo sapiens, 72 h incubation", "procedure": "as §3"}, "K562 [7]": {"test_system": "K562", "experiment": "MTS proliferation assay", "assay_type": "cell-based", "details": "Homo sapiens, K562, 72 h incubation", "procedure": "as §3"}, "Jurkat [8]": {"test_system": "Jurkat", "experiment": "AnnexinV/7-AAD staining", "assay_type": "cell-based, human", "details": "10 µM, 24 h treatment", "procedure": "as §1"}, "Ramos [9]": {"test_system": "Ramos", "experiment": "AnnexinV/7-AAD staining", "assay_type": "cell-based, human", "details": "10 µM, 24 h treatment", "procedure": "as §1"}, "HeLa [10]": {"test_system": "HeLa", "experiment": "AnnexinV/7-AAD staining", "assay_type": "cell-based, human", "details": "10 µM, 24 h treatment", "procedure": "as §1"}},
  "data": [
    {"smiles": "CC1(C)Cc2ccccc2-c2c(C(=O)C(F)(F)F)c3nc4ccccc4nc3n21", "note": "[No. 4, 1-(6,6-Dimethyl-5,6-dihydro-6a,7,12-triaza-dibenzo[a,h]fluoren-13-yl)-2,2,2-trifluoro-ethanone]", "values": [
      {"measurement": "percentage of positively stained cells (AnnexinV/7-AAD staining)", "setting": "A20", "result": "1 (score 1 relates to more than 10% but less than 50%)"},
      {"measurement": "Hoechst 33342 nuclear staining", "setting": "Jurkat [1]; 24h, conc 0.3 (µM)", "result": 0},
      {"measurement": "Hoechst 33342 nuclear staining", "setting": "Jurkat [1]; 24h, conc 1 (µM)", "result": 0},
      {"measurement": "Hoechst 33342 nuclear staining", "setting": "Jurkat [1]; 24h, conc 3 (µM)", "result": "2 (score 2 relating to strong activity comprising more than 50% of the cells)"},
      {"measurement": "Hoechst 33342 nuclear staining", "setting": "Jurkat [1]; 24h, conc 10 (µM)", "result": "2 (score 2 relating to strong activity comprising more than 50% of the cells)"},
      {"measurement": "Hoechst 33342 nuclear staining", "setting": "Jurkat [1]; 48h, conc 0.3 (µM)", "result": 0},
      {"measurement": "Hoechst 33342 nuclear staining", "setting": "Jurkat [1]; 48h, conc 1 (µM)", "result": "2 (score 2 relating to strong activity comprising more than 50% of the cells)"},
      {"measurement": "Hoechst 33342 nuclear staining", "setting": "Jurkat [1]; 48h, conc 3 (µM)", "result": "2 (score 2 relating to strong activity comprising more than 50% of the cells)"},
      {"measurement": "Hoechst 33342 nuclear staining", "setting": "Jurkat [1]; 48h, conc 10 (µM)", "result": "2 (score 2 relating to strong activity comprising more than 50% of the cells)"},
      {"measurement": "Hoechst 33342 nuclear staining", "setting": "KB; 24h, conc 0.3 (µM)", "result": 0},
      {"measurement": "Hoechst 33342 nuclear staining", "setting": "KB; 24h, conc 1 (µM)", "result": 0},
      {"measurement": "Hoechst 33342 nuclear staining", "setting": "KB; 24h, conc 3 (µM)", "result": 0},
      {"measurement": "Hoechst 33342 nuclear staining", "setting": "KB; 24h, conc 10 (µM)", "result": "2 (score 2 relating to strong activity comprising more than 50% of the cells)"},
      {"measurement": "Hoechst 33342 nuclear staining", "setting": "KB; 48h, conc 0.3 (µM)", "result": 0},
      {"measurement": "Hoechst 33342 nuclear staining", "setting": "KB; 48h, conc 1 (µM)", "result": 0},
      {"measurement": "Hoechst 33342 nuclear staining", "setting": "KB; 48h, conc 3 (µM)", "result": "2 (score 2 relating to strong activity comprising more than 50% of the cells)"},
      {"measurement": "Hoechst 33342 nuclear staining", "setting": "KB; 48h, conc 10 (µM)", "result": "2 (score 2 relating to strong activity comprising more than 50% of the cells)"},
      {"measurement": "Hoechst 33342 nuclear staining", "setting": "Ramos [2]; 24h, conc 0.3 (µM)", "result": "1 (1 relating to weak activity comprising less than 50% of the cells)"},
      {"measurement": "Hoechst 33342 nuclear staining", "setting": "Ramos [2]; 24h, conc 1 (µM)", "result": "2 (score 2 relating to strong activity comprising more than 50% of the cells)"},
      {"measurement": "Hoechst 33342 nuclear staining", "setting": "Ramos [2]; 24h, conc 3 (µM)", "result": "2 (score 2 relating to strong activity comprising more than 50% of the cells)"},
      {"measurement": "Hoechst 33342 nuclear staining", "setting": "Ramos [2]; 24h, conc 10 (µM)", "result": "2 (score 2 relating to strong activity comprising more than 50% of the cells)"},
      {"measurement": "Hoechst 33342 nuclear staining", "setting": "Ramos [2]; 48h, conc 0.3 (µM)", "result": "1 (1 relating to weak activity comprising less than 50% of the cells)"},
      {"measurement": "Hoechst 33342 nuclear staining", "setting": "Ramos [2]; 48h, conc 1 (µM)", "result": "2 (score 2 relating to strong activity comprising more than 50% of the cells)"},
      {"measurement": "Hoechst 33342 nuclear staining", "setting": "Ramos [2]; 48h, conc 3 (µM)", "result": "2 (score 2 relating to strong activity comprising more than 50% of the cells)"},
      {"measurement": "Hoechst 33342 nuclear staining", "setting": "Ramos [2]; 48h, conc 10 (µM)", "result": "2 (score 2 relating to strong activity comprising more than 50% of the cells)"},
      {"measurement": "Hoechst 33342 nuclear staining", "setting": "HeLa [3]; 24h, conc 0.3 (µM)", "result": 0},
      {"measurement": "Hoechst 33342 nuclear staining", "setting": "HeLa [3]; 24h, conc 1 (µM)", "result": 0},
      {"measurement": "Hoechst 33342 nuclear staining", "setting": "HeLa [3]; 24h, conc 3 (µM)", "result": 0},
      {"measurement": "Hoechst 33342 nuclear staining", "setting": "HeLa [3]; 24h, conc 10 (µM)", "result": "2 (score 2 relating to strong activity comprising more than 50% of the cells)"},
      {"measurement": "Hoechst 33342 nuclear staining", "setting": "HeLa [3]; 48h, conc 0.3 (µM)", "result": 0},
      {"measurement": "Hoechst 33342 nuclear staining", "setting": "HeLa [3]; 48h, conc 1 (µM)", "result": 0},
      {"measurement": "Hoechst 33342 nuclear staining", "setting": "HeLa [3]; 48h, conc 3 (µM)", "result": "2 (score 2 relating to strong activity comprising more than 50% of the cells)"},
      {"measurement": "Hoechst 33342 nuclear staining", "setting": "HeLa [3]; 48h, conc 10 (µM)", "result": "2 (score 2 relating to strong activity comprising more than 50% of the cells)"},
      {"measurement": "Hoechst 33342 nuclear staining", "setting": "K562 [4]; K562, 24h, conc 0.3 (µM)", "result": 0},
      {"measurement": "Hoechst 33342 nuclear staining", "setting": "K562 [4]; K562, 24h, conc 1 (µM)", "result": "1 (1 relating to weak activity comprising less than 50% of the cells)"},
      {"measurement": "Hoechst 33342 nuclear staining", "setting": "K562 [4]; K562, 24h, conc 3 (µM)", "result": "2 (score 2 relating to strong activity comprising more than 50% of the cells)"},
      {"measurement": "Hoechst 33342 nuclear staining", "setting": "K562 [4]; K562, 24h, conc 10 (µM)", "result": "2 (score 2 relating to strong activity comprising more than 50% of the cells)"},
      {"measurement": "Hoechst 33342 nuclear staining", "setting": "K562 [4]; K562, 48h, conc 0.3 (µM)", "result": 0},
      {"measurement": "Hoechst 33342 nuclear staining", "setting": "K562 [4]; K562, 48h, conc 1 (µM)", "result": "2 (score 2 relating to strong activity comprising more than 50% of the cells)"},
      {"measurement": "Hoechst 33342 nuclear staining", "setting": "K562 [4]; K562, 48h, conc 3 (µM)", "result": "2 (score 2 relating to strong activity comprising more than 50% of the cells)"},
      {"measurement": "Hoechst 33342 nuclear staining", "setting": "K562 [4]; K562, 48h, conc 10 (µM)", "result": "2 (score 2 relating to strong activity comprising more than 50% of the cells)"},
      {"measurement": "IC50", "setting": "Jurkat [5]", "result": "> 10", "unit": "µM"},
      {"measurement": "IC50", "setting": "HeLa [6]", "result": "> 10", "unit": "µM"},
      {"measurement": "IC50", "setting": "K562 [7]", "result": "> 10", "unit": "µM"},
      {"measurement": "percentage of positively stained cells (AnnexinV/7-AAD staining)", "setting": "Jurkat [8]", "result": "2 (score 2 relates to more than 50% positivity)"},
      {"measurement": "percentage of positively stained cells (AnnexinV/7-AAD staining)", "setting": "Ramos [9]", "result": "2 (score 2 relates to more than 50% positivity)"},
      {"measurement": "percentage of positively stained cells (AnnexinV/7-AAD staining)", "setting": "HeLa [10]", "result": "1 (score 1 relates to more than 10% but less than 50%)"}
    ]}
  ]
}
